Assay results as given in PubChem BioAssay (NCI).
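In this assay, cells in 96-well plates receive the compound at five concentrations for 48 hours. Endpoints are linearly interpolated between the surrounding concentrations. Abbreviation: GI50, concentration required for 50% inhibition of growth. TGI is the concentration that stops growth completely.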

Legend:
Experiment in all cases: DTP human tumour cell line panel, 48 h; in the data active means GI50 below about 0.43 µM; inactive means the rest
HOP-92 NSCLC = system: HOP-92 NSCLC
NCI/ADR-RES ovarian = system: NCI/ADR-RES ovarian
T-47D breast = system: T-47D breast
SK-MEL-28 melanoma = system: SK-MEL-28 melanoma
BT-549 breast = system: BT-549 breast
PC-3 prostate = system: PC-3 prostate
IGROV1 ovarian = system: IGROV1 ovarian
SNB-75 CNS = system: SNB-75 CNS
HS 578T breast = system: HS 578T breast
786-0 renal = system: 786-0 renal
SF-295 CNS = system: SF-295 CNS
DU-145 prostate = system: DU-145 prostate
OVCAR-8 ovarian = system: OVCAR-8 ovarian
U251 CNS = system: U251 CNS
RXF 393 renal = system: RXF 393 renal
UACC-62 melanoma = system: UACC-62 melanoma
NCI-H226 lung = system: NCI-H226 lung
UACC-257 melanoma = system: UACC-257 melanoma
SK-MEL-2 melanoma = system: SK-MEL-2 melanoma
COLO 205 colon = system: COLO 205 colon
MDA-MB-231 breast = system: MDA-MB-231 breast
HCT-116 colon = system: HCT-116 colon
MCF7 breast = system: MCF7 breast
RPMI-8226 leukemia = system: RPMI-8226 leukemia
OVCAR-5 ovarian = system: OVCAR-5 ovarian
K-562 leukemia = system: K-562 leukemia
MDA-MB-435 = system: MDA-MB-435
HT29 colon = system: HT29 colon
SNB-19 CNS = system: SNB-19 CNS
SF-268 CNS = system: SF-268 CNS
CAKI-1 renal = system: CAKI-1 renal
EKVX NSCLC = system: EKVX NSCLC
MALME-3M melanoma = system: MALME-3M melanoma
SK-OV-3 ovarian = system: SK-OV-3 ovarian
OVCAR-4 ovarian = system: OVCAR-4 ovarian
KM12 colon = system: KM12 colon
NCI-H23 lung = system: NCI-H23 lung
ACHN renal = system: ACHN renal
HCT-15 colon = system: HCT-15 colon
UO-31 renal = system: UO-31 renal
SF-539 CNS = system: SF-539 CNS
SN12C renal = system: SN12C renal
CCRF-CEM leukemia = system: CCRF-CEM leukemia
NCI-H522 lung = system: NCI-H522 lung
M14 melanoma = system: M14 melanoma
TK-10 renal = system: TK-10 renal
NCI-H460 lung = system: NCI-H460 lung
MOLT-4 leukemia = system: MOLT-4 leukemia
HCC-2998 colon = system: HCC-2998 colon
SK-MEL-5 melanoma = system: SK-MEL-5 melanoma
LOX IMVI melanoma = system: LOX IMVI melanoma
HOP-62 NSCLC = system: HOP-62 NSCLC
OVCAR-3 ovarian = system: OVCAR-3 ovarian
A549 NSCLC = system: A549 NSCLC
SW-620 colon = system: SW-620 colon
A498 renal = system: A498 renal
HL-60(TB) leukemia = system: HL-60(TB) leukemia

C=CCN(C(=O)CNC(=O)C(F)(F)F)c1cc(OCc2ccccc2)c2c(c1)c(C)cn2S(=O)(=O)c1ccccc1
15.6 µM: TGI (UO-31 renal)
> 76.2 µM: TGI (SNB-75 CNS)
> 100 µM: TGI (HOP-92 NSCLC) | TGI (NCI/ADR-RES ovarian) | TGI (T-47D breast) | TGI (SK-MEL-28 melanoma) | TGI (BT-549 breast) | TGI (PC-3 prostate) | TGI (IGROV1 ovarian) | TGI (HS 578T breast) | TGI (786-0 renal) | TGI (SF-295 CNS) | TGI (DU-145 prostate) | TGI (OVCAR-8 ovarian) | TGI (U251 CNS) | TGI (RXF 393 renal) | TGI (UACC-62 melanoma) | TGI (NCI-H226 lung) | TGI (UACC-257 melanoma) | TGI (SK-MEL-2 melanoma) | TGI (COLO 205 colon) | TGI (MDA-MB-231 breast) | TGI (HCT-116 colon) | TGI (MCF7 breast) | TGI (RPMI-8226 leukemia) | TGI (OVCAR-5 ovarian) | TGI (K-562 leukemia) | TGI (MDA-MB-435) | TGI (HT29 colon) | TGI (SNB-19 CNS) | TGI (SF-268 CNS) | TGI (CAKI-1 renal) | TGI (EKVX NSCLC) | TGI (MALME-3M melanoma) | TGI (SK-OV-3 ovarian) | TGI (OVCAR-4 ovarian) | TGI (KM12 colon) | TGI (NCI-H23 lung) | TGI (ACHN renal) | TGI (HCT-15 colon) | TGI (SF-539 CNS) | TGI (SN12C renal) | TGI (CCRF-CEM leukemia) | TGI (NCI-H522 lung) | TGI (M14 melanoma) | TGI (TK-10 renal) | TGI (NCI-H460 lung) | TGI (MOLT-4 leukemia) | TGI (HCC-2998 colon) | TGI (SK-MEL-5 melanoma) | TGI (LOX IMVI melanoma) | TGI (HOP-62 NSCLC) | TGI (OVCAR-3 ovarian) | TGI (A549 NSCLC)

CC(C)=CCc1cc(O)cc2c1OC(C=C(C)C)C1=C2C(=O)C2=C(C1=O)S(=O)(=O)CCN2 (stereo not given)
7.14 µM: TGI (HCT-116 colon)
5.05 µM: TGI (SK-MEL-5 melanoma)
inactive: GI50 (SW-620 colon) 5.34 µM | GI50 (HOP-92 NSCLC) 6.05 µM | GI50 (NCI/ADR-RES ovarian) > 16.7 µM | GI50 (T-47D breast) 3.57 µM | GI50 (SK-MEL-28 melanoma) 3.12 µM | GI50 (BT-549 breast) 5.18 µM | GI50 (PC-3 prostate) 5.09 µM | GI50 (IGROV1 ovarian) 3.23 µM | GI50 (SNB-75 CNS) 2.6 µM | GI50 (HS 578T breast) 3.15 µM | GI50 (786-0 renal) 5.05 µM | GI50 (DU-145 prostate) 2.93 µM | GI50 (OVCAR-8 ovarian) 3.09 µM | GI50 (U251 CNS) 2.84 µM | GI50 (RXF 393 renal) 3.02 µM | GI50 (UACC-62 melanoma) 2.81 µM | GI50 (NCI-H226 lung) 4.75 µM | GI50 (UACC-257 melanoma) 2.56 µM | GI50 (SK-MEL-2 melanoma) 3.13 µM | GI50 (COLO 205 colon) 5.42 µM | GI50 (MDA-MB-231 breast) 2.99 µM | GI50 (HCT-116 colon) 2.97 µM | GI50 (MCF7 breast) 2.79 µM | GI50 (RPMI-8226 leukemia) 4.16 µM | GI50 (OVCAR-5 ovarian) 4.34 µM | GI50 (K-562 leukemia) 4.68 µM | GI50 (MDA-MB-435) 3.05 µM | GI50 (HT29 colon) 6.61 µM | GI50 (SNB-19 CNS) 2.78 µM | GI50 (SF-268 CNS) 2.91 µM | GI50 (EKVX NSCLC) 3.3 µM | GI50 (MALME-3M melanoma) 1.69 µM | GI50 (SK-OV-3 ovarian) 8.06 µM | GI50 (OVCAR-4 ovarian) 2.77 µM | GI50 (KM12 colon) 5.8 µM | GI50 (NCI-H23 lung) 3.85 µM | GI50 (ACHN renal) 6.14 µM | GI50 (HCT-15 colon) 5.8 µM | GI50 (UO-31 renal) 6.23 µM | GI50 (SF-539 CNS) 2.8 µM | GI50 (SN12C renal) 2.7 µM | GI50 (CCRF-CEM leukemia) 5.81 µM | GI50 (NCI-H522 lung) 2.94 µM | GI50 (M14 melanoma) 2.92 µM | GI50 (TK-10 renal) > 16.7 µM | GI50 (NCI-H460 lung) 5.23 µM | GI50 (MOLT-4 leukemia) 3.4 µM | GI50 (HCC-2998 colon) 5.53 µM | GI50 (SK-MEL-5 melanoma) 2.75 µM | GI50 (LOX IMVI melanoma) 3.48 µM | GI50 (HOP-62 NSCLC) 5.66 µM | GI50 (A498 renal) 9.61 µM | GI50 (OVCAR-3 ovarian) 1.18 µM | GI50 (A549 NSCLC) 6.14 µM
14.8 µM: TGI (OVCAR-3 ovarian)
6.56 µM: TGI (SK-MEL-2 melanoma)
6.97 µM: TGI (MCF7 breast)
9.16 µM: TGI (EKVX NSCLC)
5.46 µM: TGI (UACC-62 melanoma)
10.2 µM: TGI (LOX IMVI melanoma)
9.17 µM: TGI (IGROV1 ovarian)
6.72 µM: TGI (OVCAR-8 ovarian) | TGI (OVCAR-4 ovarian)
12.5 µM: TGI (RXF 393 renal) | TGI (OVCAR-5 ovarian)
3.64 µM: TGI (MALME-3M melanoma)
12.9 µM: TGI (NCI-H23 lung)
8.99 µM: TGI (MOLT-4 leukemia)
5.45 µM: TGI (SN12C renal)
12.2 µM: TGI (RPMI-8226 leukemia)
5.59 µM: TGI (M14 melanoma)
6.39 µM: TGI (SNB-75 CNS)
16.5 µM: TGI (SW-620 colon)
8.27 µM: TGI (MDA-MB-231 breast)
5.09 µM: TGI (SF-539 CNS)
5.15 µM: TGI (U251 CNS) | TGI (SNB-19 CNS)
8.37 µM: TGI (SF-268 CNS)
5.8 µM: TGI (MDA-MB-435)
6.04 µM: TGI (SK-MEL-28 melanoma)
> 16.7 µM: TGI (HOP-92 NSCLC) | TGI (NCI/ADR-RES ovarian) | TGI (BT-549 breast) | TGI (PC-3 prostate) | TGI (786-0 renal) | TGI (NCI-H226 lung) | TGI (COLO 205 colon) | TGI (K-562 leukemia) | TGI (HT29 colon) | TGI (SK-OV-3 ovarian) | TGI (KM12 colon) | TGI (ACHN renal) | TGI (HCT-15 colon) | TGI (UO-31 renal) | TGI (CCRF-CEM leukemia) | TGI (TK-10 renal) | TGI (NCI-H460 lung) | TGI (HCC-2998 colon) | TGI (HOP-62 NSCLC) | TGI (A498 renal) | TGI (A549 NSCLC)
5.37 µM: TGI (DU-145 prostate)
4.97 µM: TGI (UACC-257 melanoma)
13 µM: TGI (HS 578T breast)
7.03 µM: TGI (NCI-H522 lung)
12.7 µM: TGI (T-47D breast)

CC(=O)c1c(O)ccc2c1c1c(n2C)C(=O)c2ccccc2C1=O
5.97 µM: TGI (SNB-75 CNS)
> 28.1 µM: TGI (TK-10 renal)
> 44.7 µM: TGI (CCRF-CEM leukemia)
4.46 µM: TGI (T-47D breast)
7.97 µM: TGI (SF-268 CNS)
> 21 µM: TGI (MCF7 breast)
> 48.5 µM: TGI (EKVX NSCLC)
1.36 µM: TGI (HCC-2998 colon)
> 100 µM: TGI (BT-549 breast) | TGI (HS 578T breast) | TGI (786-0 renal) | TGI (SF-295 CNS) | TGI (DU-145 prostate) | TGI (OVCAR-8 ovarian) | TGI (U251 CNS) | TGI (RXF 393 renal) | TGI (UACC-257 melanoma) | TGI (SK-MEL-2 melanoma) | TGI (COLO 205 colon) | TGI (MDA-MB-231 breast) | TGI (HCT-116 colon) | TGI (OVCAR-5 ovarian) | TGI (K-562 leukemia) | TGI (HT29 colon) | TGI (SNB-19 CNS) | TGI (CAKI-1 renal) | TGI (SK-OV-3 ovarian) | TGI (HCT-15 colon) | TGI (SF-539 CNS) | TGI (NCI-H460 lung) | TGI (MOLT-4 leukemia) | TGI (HL-60(TB) leukemia) | TGI (SK-MEL-5 melanoma) | TGI (LOX IMVI melanoma) | TGI (HOP-62 NSCLC) | TGI (A498 renal) | TGI (A549 NSCLC)
6.47 µM: TGI (OVCAR-3 ovarian)
